Measured values: PubChem BioAssay AID608 (Sanford-Burnham Center for Chemical Genomics, 2007)
Calls of active or inactive are those of the source. No rule for the calls is given here.

Target: Peptidyl-prolyl cis-trans isomerase FKBP1A (Homo sapiens) (UniProt P62942)
Assay: small-molecule binding to FKBP12 – biophysical, NMR detection (AID 608)
Settings: purified FKBP12

Chain of Peptidyl-prolyl cis-trans isomerase FKBP1A (Homo sapiens) (P62942 whole entry, looked up): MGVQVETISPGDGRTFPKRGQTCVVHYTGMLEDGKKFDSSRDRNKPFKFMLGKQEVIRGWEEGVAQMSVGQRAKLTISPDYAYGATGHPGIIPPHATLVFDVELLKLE

Compound	Kd
COc1ccc(/C=C2/NC(=S)NC2=O)cc1	> 4 mM (inactive)
Cc1csc(NC(=O)c2cccs2)n1	> 4 mM (inactive)
Cn1cnc2c(=S)[nH]c(=O)n(Cc3ccccc3)c21	> 4 mM (inactive)
CSc1ccc(S(=O)(=O)N2CCCC2)cc1	> 4 mM (inactive)
CC(=O)CS(=O)(=O)c1ccccc1	> 4 mM (inactive)
Cc1ccc(S(=O)(=O)CCc2ccccn2)cc1	> 4 mM (inactive)
CC(=O)c1c(C)nc2ccccc2c1N	> 4 mM (inactive)
Cc1cccc(C)c1N1C(=O)CCC1=O	> 4 mM (inactive)
O=C1Nc2ccccc2C1C1(O)C(=O)Nc2ccc(F)cc21 (centres undefined)	> 4 mM (inactive)
COc1ccc(NC(=O)C2CC(=O)N=C(N)S2)cc1 (centres undefined)	> 4 mM (inactive)
Cc1cc(C)n(CCC(=O)O)n1	> 4 mM (inactive)
CC(C)=CCc1c(O)cc2occ(-c3ccc4c(c3)OCO4)c(=O)c2c1O	> 4 mM (inactive)
Cc1nc2ccccc2c2c1C(=O)N(N)C2=O	> 4 mM (inactive)
Cc1ccc(OCC(=O)N2CC(C)OC(C)C2)cc1C (centres undefined)	> 4 mM (inactive)
CCOc1ccc(Cl)cc1S(=O)(=O)N1CCCC1	> 4 mM (inactive)
C=CCc1cc(C(=O)N2CCCCC2)ccc1O	> 4 mM (inactive)
O=S(=O)(Nc1cc(Cl)cc(Cl)c1)N1CCCCC1	inactive
NC(=O)c1ccsc1NC(=O)C1=COCCO1	> 4 mM (inactive)
Cc1[nH]c2ccccc2c1Cc1n[nH]c(=S)n1C	> 4 mM (inactive)
CC(=O)Nc1cccc(N2CCCC2=O)c1	> 4 mM (inactive)
Cc1nc(N)sc1C(=O)Nc1nccs1	> 4 mM (inactive)
Cc1cc(C)nc(N2CC(=O)N(C)C2=N)n1	> 4 mM (inactive)
Nc1cc(C(=O)N2CCCC2)cc(C(=O)N2CCCC2)c1	> 4 mM (inactive)
CN1CCCCC1c1ccc(-c2cccnc2)nc1 (centres undefined)	> 4 mM (inactive)

Compound	Kd
COc1ccc(CN2CCOCC2)c(C)c1C	> 4 mM (inactive)
COC(=O)CC1SC(=O)NC1=O (centres undefined)	> 4 mM (inactive)
C[C@@H]1O[C@@H](O[C@H]2CC[C@]3(C=O)C4CC[C@]5(C)[C@@H](C6=CC(=O)OC6)CC[C@]5(O)C4CC[C@]3(O)C2)[C@H](O)[C@H](O)[C@H]1O (some centres undefined)	> 4 mM (inactive)
Cc1cc(NC(=O)CCCn2cnc([N+](=O)[O-])n2)no1	> 4 mM (inactive)
NC(C(=O)O)C(O)c1ccccc1 (centres undefined)	> 4 mM (inactive)
CNC(=O)Oc1ccc2c(c1)[C@]1(C)CCN(C)[C@@H]1N2C	> 4 mM (inactive)
S=c1nc(C2CC2)[nH]c2ccccc12	> 4 mM (inactive)
O=C1CNC(=O)N1Cc1ccc(Br)cc1	> 4 mM (inactive)
Nc1cccc(CC(=S)N2CCOCC2)c1	> 4 mM (inactive)
Cn1c(=O)[nH]c(=O)c2nsnc21	> 4 mM (inactive)
COC(=O)[C@@H]1OC(=O)C2OC23[C@@]1(C)CCC1[C@]2(C)C(C[C@H](O)[C@]13C)C(C)(C)[C@H](OC(C)=O)C[C@@H]2OC(C)=O (some centres undefined)	> 4 mM (inactive)
CCOC(=O)CC1NCCNC1=O (centres undefined)	> 4 mM (inactive)
O=C(CCc1ccc(O)cc1)c1c(O)cc(O)cc1O[C@@H]1O[C@H](CO)[C@@H](O)[C@H](O)[C@H]1O	> 4 mM (inactive)
CC(=O)O[C@@H]1C[C@@]2(C)[C@H](c3ccoc3)C[C@H]3O[C@]32[C@]2(C)C(=O)C(O)=C3C(C)(C)C(=O)C=C[C@]3(C)C12 (some centres undefined)	> 4 mM (inactive)
CN1CCOc2cc(C(=O)O)ccc21	> 4 mM (inactive)
Cc1cc(C)n(C/C=C/Cn2nc(C)cc2C)n1	> 4 mM (inactive)
Cc1cc2c(N)cccc2nn1	> 4 mM (inactive)
O=S1(=O)CCC(N2CCCCC2)C1 (centres undefined)	> 4 mM (inactive)
Cc1cc(C)n2nc(C(=O)Nc3cccnc3)nc2n1	> 4 mM (inactive)
O=C(Nc1ccon1)c1ccc(Br)o1	> 4 mM (inactive)
CC(=O)N1CCN(c2ccc(O)cc2)CC1	> 4 mM (inactive)
O=C1NC(=S)N/C1=C\c1ccccc1F	> 4 mM (inactive)
COc1cnn(Cc2ccccc2)c(=O)c1Cl	> 4 mM (inactive)
c1ccc(-c2nsc(N3CCNCC3)n2)cc1	> 4 mM (inactive)

Compound	Kd
COc1cc(OC)c2c(c1)O[C@H](c1ccc(OC)c(OC)c1)[C@@H](O)C2	> 4 mM (inactive)
O=c1n(-c2cccc(Cl)c2)c(=O)n2n1CCC2	> 4 mM (inactive)
CSc1ccc(C(=S)N2CCN(C)CC2)cc1	> 4 mM (inactive)
NC12CC3CC(C1)CC(C(=O)O)(C3)C2	> 4 mM (inactive)
CC(=O)c1c(O)c(C)c(O)c2c1OC1=CC(=O)C(C(C)=O)C(=O)C12C (centres undefined)	> 4 mM (inactive)
O=C(O)c1csc2ccccc12	> 4 mM (inactive)
NC(=O)c1ccc(NC(=O)c2cccnc2)cc1	> 4 mM (inactive)
CCOC(=O)c1ccc(NS(=O)(=O)N2CCOCC2)cc1	inactive
COc1cc([C@@H]2c3cc4c(cc3[C@H](O)[C@H]3COC(=O)[C@@H]23)OCO4)cc(OC)c1OC	> 4 mM (inactive)
O=C(O)CC(O)c1nc2ccccc2[nH]1 (centres undefined)	> 4 mM (inactive)
Cc1cc(C)n(S(=O)(=O)c2ccc(C(C)(C)C)cc2)n1	> 4 mM (inactive)
NC(=O)CCn1cnc2ccccc21	> 4 mM (inactive)
Nc1ncnc(Cl)c1[N+](=O)[O-]	> 4 mM (inactive)
CN(Cc1nc2ccccc2n1C)C(=O)c1cccs1	> 4 mM (inactive)
CN1C(=O)C2C=CC1C1C(=O)N(c3ccccc3)C(=O)C21 (centres undefined)	> 4 mM (inactive)
Cc1cc(C)n(S(=O)(=O)c2cc(C)c(C)cc2C)n1	> 4 mM (inactive)
O=C1CCCC(=O)N1Cc1ccco1	> 4 mM (inactive)
CN=C(C)c1c(O)n(C)c(=S)n(C)c1=O	> 4 mM (inactive)
CC(=O)Oc1ccc2c(c1C(C)C)CCC1C(C)(C)CCC[C@]21C (some centres undefined)	> 4 mM (inactive)
COc1ccc(-c2coc3c(OC)c(OC)cc(OC)c3c2=O)cc1	> 4 mM (inactive)
O=C(Nc1ccccn1)C(=O)N1CCCC1	> 4 mM (inactive)
CNC(=O)C1COc2ccccc2O1 (centres undefined)	> 4 mM (inactive)
Nc1ccc2c(C(F)(F)F)cc(=O)oc2c1	> 4 mM (inactive)
C=CCn1c(-c2ccc(O)cc2)n[nH]c1=S	> 4 mM (inactive)

Compound	Kd
CC1(C)N([O-])c2cc([N+](=O)[O-])ccc2[N+]1=O	> 4 mM (inactive)
O=C(O)c1cnc2n(c1=O)CCS2	> 4 mM (inactive)
Nc1cccc(S(N)(=O)=O)c1	> 4 mM (inactive)
O=C(Nc1ccc2c(c1)OCO2)c1c(F)cccc1F	> 4 mM (inactive)
Cc1sc2nc(NCCO)[nH]c(=O)c2c1C	> 4 mM (inactive)
NC(=O)Cn1cnc2ccccc21	> 4 mM (inactive)
Cc1cc(C)n2nc(NCc3ccccc3)nc2n1	> 4 mM (inactive)
COc1ccc2c(c1)CCCN2C(N)=O	> 4 mM (inactive)
Cc1cccc(NS(=O)(=O)c2cccs2)n1	> 4 mM (inactive)
CCn1cnc2cc(NCc3ccncc3)ccc21	> 4 mM (inactive)
Nc1nc(-c2cccnc2)nn1C(=O)Cc1ccccc1	> 4 mM (inactive)
COc1ccc2c(c1OC)C(=O)OC2[C@H]1c2c(cc3c(c2OC)OCO3)CCN1C (some centres undefined)	> 4 mM (inactive)
CS/C(N)=C\C(C)=O	> 4 mM (inactive)
Cc1ccccc1NC(=S)NCCO	> 4 mM (inactive)
O=[N+]([O-])c1c[n+]([O-])n(-c2ccccc2)n1	> 4 mM (inactive)
CN=C(C)c1c(O)n(C)c(=O)n(C)c1=O	> 4 mM (inactive)
COc1cc(C)c(S(=O)(=O)N2CCN(C)CC2)cc1C	> 4 mM (inactive)
Nc1nc(SCc2ccc3c(c2)OCO3)n[nH]1	> 4 mM (inactive)
NC(=O)c1c(Cl)nsc1-c1ccccc1Cl	> 4 mM (inactive)
O=C(O)Cn1cnc2ccccc2c1=O	> 4 mM (inactive)
O=C(NC1=NCCS1)c1ccc([N+](=O)[O-])cc1Cl	> 4 mM (inactive)
CC(O)C(=O)N/N=C/c1ccccc1 (centres undefined)	> 4 mM (inactive)
NS(=O)(=O)c1ccc(NC(=O)c2cccs2)cc1	> 4 mM (inactive)
Cc1n[nH]c(C)c1-c1ccccc1C(=O)O	> 4 mM (inactive)

Compound	Kd
CCn1c(C)c(C(C)=O)c(N2CCOCC2)nc1=S	> 4 mM (inactive)
O=C1CCNc2ccccc2N1	> 4 mM (inactive)
NC(=O)CSc1ccc(-c2ccccc2)nn1	> 4 mM (inactive)
CC(=O)Nc1ccc(N2CCOCC2)cc1	> 4 mM (inactive)
COc1ccc(-c2nc(C)sc2CC(=O)O)cc1	> 4 mM (inactive)
NC(=O)c1cccc2c(=O)oc3ccccc3c12	> 4 mM (inactive)
COc1cc([C@@H]2c3cc4c(cc3[C@H](OC(C)=O)[C@H]3COC(=O)[C@H]23)OCO4)cc(OC)c1OC	> 4 mM (inactive)
CCCCn1c(S(=O)(=O)O)nc2ccccc21	> 4 mM (inactive)
O=C(NCCCO)c1ccncc1	> 4 mM (inactive)
CN1CCC(N(C)Cc2cccnc2)CC1	> 4 mM (inactive)
Nc1nc(-c2ccncc2)cs1	> 4 mM (inactive)
CC[C@@]1(O)C(=O)OCc2c1cc1n(c2=O)Cc2cc3ccccc3nc2-1	> 4 mM (inactive)
Cc1csc2nc(=O)c3ccccc3n12	> 4 mM (inactive)
Nn1c(CN2CCCCC2)nc2ccccc2c1=O	> 4 mM (inactive)
O=S1(=O)CCC(Nc2ccccc2)C1 (centres undefined)	> 4 mM (inactive)
Cc1cc(OCC(=O)N2CCOCC2)cc(C)c1Cl	inactive
CCS(=O)(=O)N1CCN(c2ccccc2F)CC1	> 4 mM (inactive)
CN(C)N1C(=O)c2ccccc2C1=O	> 4 mM (inactive)
O=C1CCC(=O)N1CNc1ccccc1	> 4 mM (inactive)
Cc1nc2ccc(C(=O)N3CCSCC3)cc2s1	> 4 mM (inactive)
CCOC(=O)C1CCC(=O)c2cccn21 (centres undefined)	> 4 mM (inactive)
O=C1C[C@@H](c2ccccc2)Oc2cc(O)cc(O)c21	> 4 mM (inactive)
CCC(C)C(=O)c1c(O)c(C)c2oc3c(C)c(O)c(C(=O)C(C)CC)c(O)c3c2c1O (centres undefined)	> 4 mM (inactive)
